{"source": "patent US20110200165A1", "about": "“CONTRAST AGENT-REINFORCED RADIOTHERAPY HAVING HIGH-OUTPUT TUBES” (BAYER SCHERING PHARMA AKTIENGESELLSCHAFT, priority 2008, published 2011)", "key": {"[1]": {"tested_on": "glioblastoma (GS9L) rat tumor model", "test": "Contrast medium-enhanced CT radiation therapy, survival, glioblastoma (GS9L) rat tumor model", "type": "in vivo", "conditions": "2 g of iodine/kg i.v. within 6 minutes before each of 6 sessions of 3 Gy, 140 kV, total 18 Gy; versus irradiation with common salt and untreated", "source_text": "The therapeutic effectiveness of the contrast medium-enhanced radiation therapy was examined on a glioblastoma (GS9L) rat tumor model. To this end, male Fisher rats were inoculated stereotactically with 5 […]I of cell suspension (10^6 glioblastoma 9L cells) in the brain. After 8 days, the tumor growth was ensured by means of MRT, and the animals were divided into 3 groups (n=5). The animals of group 1 received no therapy and were used as a control. Animals of groups 2 and 3 passed through a CT radiation therapy with a total dose of 18 Gy at a tube voltage of 140 kV (Volume Zoom, Siemens Medical Solutions, Erlangen). Six therapy sessions were performed (2 per day at an interval of 4 hours), and one dose of 3 Gy was administered to the animals in each case. The radiation was limited to the tumor using the layer collimators and introduced within 90 s, which corresponds to a tumor-dose rate of 2 Gy/minute. Before each therapy session, a dimeric contrast medium (Isovist 300, Bayer Schering Pharma, Berlin) in a dose of 2 g of iodine/kg of body weight was administered to the animals of group 2. The latter was administered intravenously, within 6 minutes. With this application scheme, a maximum iodine-tumor concentration in a short plateau phase of between 6 and 7 minutes is achieved (FIG. 14). […]"}, "[2]": {"conditions": "rat, in vivo", "source_text": "The contrast medium can also be intraarterially introduced into the vessel as in interventional angiography. To this end, a catheter is positioned in front of the outlet of the vascular section of interest. In the GS9L rat tumor model, the contrast medium concentration in the tumor was studied at a low flow rate for an intraarterial administration in 4 animals. To this end, the carotid artery was catheterized on day 10 after inoculation of the tumor cells, and a cannula was placed in the internal carotid artery (19). Via the latter, Isovist 300 was administered in a dosage of 2 g of iodine within 6 minutes. CT images of the rat head were made at the points in time 0, 1, 2, . . . 15 and 20 minutes after the beginning of the injection. For evaluation, the DynEva equipment software was used. The mean absorption in the tumor, adjacent healthy brain areas and in adjacent skin areas was determined for each point in time and converted into the corresponding iodine concentration. […] Relative to an intravenous administration, the plateau phase is extended to 60-120 seconds, and the drop in iodine concentration is slower. During the contrast medium administration phase, iodine accumulates analogously in the tumor and reaches a plateau after the end of the latter. […] In the healthy brain tissue, only very low iodine concentrations<0.5 mg/ml were observed."}, "[3]": {"tested_on": "glioblastoma (GS9L) rat tumor model", "test": "Contrast medium-enhanced radiation therapy compared with linear accelerator, glioblastoma (GS9L) rat tumor model", "type": "in vivo", "procedure": "For examination of the therapeutic effectiveness of the contrast medium-enhanced radiation therapy with a high dose rate, the latter was compared to the therapeutic standard, i.e., a radiation therapy on the linear accelerator. To this end, a glioblastoma (GS9L) rat tumor model was used. Male Fischer rats were stereotactially inoculated with 5 µl of cell suspension (10^6 glioblastoma 9L cells) in the brain. After 8 days, the to growth was ensured by means of MRT, and the animals were divided into 3 groups. The animals of group 1 (n=6) obtained no therapy and were used as a control. Animals of group 2 (n=5) were treated on the linear accelerator (Novalis, Brain Lab AG, Feldkirchen) at 2 MV with a total dose of 18 Gy. This dose was administered to 3 in fractions of 6 Gy each on days 9, 10 and 11 after inoculation. The animals of group 3 passed through a contrast medium-enhanced radiation therapy on days 9-11 with a total dose of 18 Gy and a tube voltage of 140 kV (Volume Zoom, Siemens Medical Solutions, Erlangen). Six therapy sessions were carried out (2 per day at 4-hour intervals) and in each case a dose of 3 Gy was administered to the animals within 90 seconds. This corresponds to a tumor-dose rate of 2 Gy/minute. […]"}}, "data": [{"smiles": "CN(C(=O)CC(=O)N(C)c1c(I)c(C(=O)NC(CO)C(O)CO)c(I)c(C(=O)NC(CO)C(O)CO)c1I)c1c(I)c(C(=O)NC(CO)C(O)CO)c(I)c(C(=O)NC(CO)C(O)CO)c1I", "note": "(stereo not shown) [Isovist 300, Iotrolan]", "values": [{"measurement": "survival after contrast medium-enhanced radiation therapy", "setting": "[1]", "value": "considerable therapeutic advantage"}, {"measurement": "time of tumor iodine concentration maximum with plateau after the end of administration", "setting": "[2]", "value": "about 1 minute"}, {"measurement": "animals showing a significant therapy effect (survival time)", "setting": "[3]; 2 g of iodine/kg i.v. within 6 minutes before each of 6 sessions of 3 Gy within 90 seconds, 140 kV, total 18 Gy", "value": "2 of 6"}, {"measurement": "therapeutic result relative to standard therapy on the linear accelerator", "setting": "[3]; same total dose 18 Gy, linear accelerator 2 MV, 3 fractions of 6 Gy", "value": "therapeutic advantage"}]}]}
